# From US20190224238A1, “TUMOR THERAPEUTIC DRUG” (HUBEI SOUNDNY BIO TECH CO., LTD., priority 2016, published 2019)
# Assays:
# [1] = Toxicity and side effect test in BALB/c mice (GPT, serum creatinine, APTT, PT); assay type: in vivo; conditions: tail vein, once a day for 7 days; blood on 8th day
# Experimental: 3) The prepared H22-MPs (MTX) was injected into 8 BALB/c mice via tail vein respectively, as the experimental group 1; the prepared Ery-MPs (MTX) was injected into 8 BALM mice via tail vein respectively, as the experimental group 2; 8 mice BALB/c mice were injected with methotrexate via tail vein at a dose of 1 μg/g, as the experimental group 3; 8 mice BALB/c mice were injected with 0.9% (g/ml) physiological saline via tail vein, as the control group.
# 4) On the 8th day, venous blood was taken from the mice in the experimental group 1, the experimental group 2, the experimental group 3 and the control group, and the content of glutamic-pyruvic transaminase, creatinine in serum and the content of APTT and PT in the blood were detected. The body weights of the mice were weighed.
# [2] = test system: H22 cell hepatoma ascites model; experiment: Survival of BALB/c mouse H22 hepatoma ascites model; assay type: in vivo; conditions: until the 34th (H22-MPs), 33th (Ery-MPs), 31th (methotrexate) day; 10 mice per group
# Experimental: 3) On the first day, 5×10^4 H22 cells were intraperitoneally inoculated into BALB/c mice, and a total of 40 BALB/c mice were injected to obtain the one with H22 cell hepatoma ascites model, which were randomly divided into four groups equally, namely experimental group 1, experimental group 2, experimental group 3 and control group. The BALB/c mice in experimental group 1 were intraperitoneally injected with H22-MPs (MTX); the BALM mice in experimental group 2 were intraperitoneally injected with Ery-MPs (MTX); the BALB/c mice in experimental group 3 were intraperitoneally injected with methotrexate at a dose of 1 μg/g; and the BALB/c mice in the control group were intraperitoneally injected with 200 μL of 0.9% (g/ml) physiological saline.
# 4) From the 4th day, according to the same injection procedure, the experimental groups were injected with H22-MPs (MTX), Ery-MPs (MTX) and chemotherapy drug (methotrexate) once a day for 7 consecutive days, respectively, while the control group was injected with 200 μL 0.9% (g/ml) physiological saline once a day for 7 consecutive days. From the 11th day, all of the BALB/c mice were fed normally, and the survival status of the BALB/c mice in each group was observed.
# [3] = test system: Lewis cell lung cancer model; conditions: tail vein, once a day for 10 days from 5th day
# Experimental: 3) On the 1st day, 1×10^6 Lewis cells were inoculated into a C57BL/6 mouse via tail vein, and a total of 32 C57BL/6 mice were injected to obtain the C57BL/6 mice of Lewis cell lung cancer model which were randomly divided into four groups equally, namely, experiment group 1, experiment group 2, experiment group 3 and control group.
# From the 15th day, all of the C57BL/6 mice were fed normally, and the survival status of the C57BL/6 mice in each group was observed.
smiles,measurement,setting,value
CN(Cc1cnc2nc(N)nc(N)c2n1)c1ccc(C(=O)N[C@@H](CCC(=O)O)C(=O)O)cc1 [methotrexate],average activated partial prothrombin time (APTT),[1],16.5 s
same,average plastin time (PT),[1],13.13 s
same,average serum creatinine content,[1],26.13 µmol/L
same,total mice died,[2],9 mice
same,therapeutic effect on lung cancer in mice (survival curve),[3],much poorer than that of Ery-MPs (MTX) and LLC-MPs (MTX)
